Measurements reported in the NIST ThermoML archive (doi:10.1021/je300382a).

Key:
[1] = xn = mol fraction of the nth substance listed; conditions: Ring tensiometer
[2] = refractive index (Na D-line) (dimensionless); xn = mol fraction of the nth substance listed; conditions: 101 kPa, Liquid, Standard Abbe refractometry

NCc1ccccc1 [benzylamine] + O
Conditions | refractive index, 283.15 K | refractive index, 293.15 K | refractive index, 303.15 K | refractive index, 313.15 K | refractive index, 323.15 K | surface tension liquid-gas, 283.15 K [mN/m] | surface tension liquid-gas, 293.15 K [mN/m] | surface tension liquid-gas, 303.15 K [mN/m] | surface tension liquid-gas, 313.15 K [mN/m] | surface tension liquid-gas, 323.15 K [mN/m]
[1], x1 = 0.0001 | – | – | – | – | – | 69.5 | 67.7 | 65.5 | 63.2 | 61.6
[1], x1 = 0.0005 | – | – | – | – | – | 60.4 | 58.1 | 56.1 | 54.3 | 52.3
[1], x1 = 0.001 | – | – | – | – | – | 54.9 | 53.1 | 50.6 | 48.8 | 47.2
[1], x1 = 0.003 | – | – | – | – | – | 48.6 | 46.1 | 44.3 | 42.6 | 40.1
[1], x1 = 0.006 | – | – | – | – | – | 42.1 | 40.7 | 39.2 | 37.7 | 36.4
[1], x1 = 0.01 | – | – | – | – | – | 41.4 | 40 | 38.6 | 37.5 | 36
[1], x1 = 0.03 | – | – | – | – | – | 39.5 | 38.4 | 37.5 | 36.3 | 35.6
[1], x1 = 0.05 | – | – | – | – | – | 39.3 | 38.3 | 37.5 | 36.3 | 35.5
[1], x1 = 0.07 | – | – | – | – | – | 38.9 | 38.1 | 37.3 | 36.2 | 35.5
[1], x1 = 0.1 | – | – | – | – | – | 38.7 | 38 | 37.2 | 36.2 | 35.4
[1], x1 = 0.2 | – | – | – | – | – | 38.6 | 37.8 | 37 | 36.1 | 35.4
[1], x1 = 0.3 | – | – | – | – | – | 38.4 | 37.5 | 36.9 | 35.9 | 35.2
[1], x1 = 0.4 | – | – | – | – | – | 38.4 | 37.5 | 36.9 | 35.9 | 35.2
[1], x1 = 0.5 | – | – | – | – | – | 38.3 | 37.6 | 36.8 | 35.9 | 35.2
[1], x1 = 0.6 | – | – | – | – | – | 38.2 | 37.4 | 36.6 | 35.7 | 35.2
[1], x1 = 0.7 | – | – | – | – | – | 38.1 | 37.3 | 36.5 | 35.8 | 35.1
[1], x1 = 0.8 | – | – | – | – | – | 38.1 | 37.3 | 36.5 | 35.8 | 35.1
[1], x1 = 0.9 | – | – | – | – | – | 38 | 37.2 | 36.4 | 35.7 | 35.1
[1], x1 = 1 | – | – | – | – | – | 37.9 | 37.1 | 36.3 | 35.6 | 35
[2], x1 = 0.0001 | 1.3338 | 1.3331 | 1.3321 | 1.331 | 1.3298 | – | – | – | – | –
[2], x1 = 0.0005 | 1.3344 | 1.3337 | 1.3326 | 1.3312 | 1.3297 | – | – | – | – | –
[2], x1 = 0.001 | 1.3351 | 1.3343 | 1.3333 | 1.3318 | 1.3303 | – | – | – | – | –
[2], x1 = 0.003 | 1.3376 | 1.3368 | 1.3357 | 1.3342 | 1.3327 | – | – | – | – | –
[2], x1 = 0.006 | 1.3411 | 1.3403 | 1.3392 | 1.3376 | 1.3361 | – | – | – | – | –
[2], x1 = 0.01 | 1.3461 | 1.3449 | 1.3441 | 1.3423 | 1.3405 | – | – | – | – | –
[2], x1 = 0.03 | 1.3683 | 1.367 | 1.3654 | 1.3634 | 1.3614 | – | – | – | – | –
[2], x1 = 0.05 | 1.387 | 1.3853 | 1.3834 | 1.381 | 1.3787 | – | – | – | – | –
[2], x1 = 0.07 | 1.4047 | 1.4007 | 1.3985 | 1.3961 | 1.3937 | – | – | – | – | –
[2], x1 = 0.1 | 1.4252 | 1.4214 | 1.4183 | 1.4163 | 1.4136 | – | – | – | – | –
[2], x1 = 0.2 | 1.468 | 1.4648 | 1.4614 | 1.4592 | 1.4569 | – | – | – | – | –
[2], x1 = 0.3 | 1.4957 | 1.4918 | 1.4879 | 1.4848 | 1.4818 | – | – | – | – | –
[2], x1 = 0.4 | 1.5143 | 1.5097 | 1.5057 | 1.5024 | 1.4985 | – | – | – | – | –
[2], x1 = 0.5 | 1.5263 | 1.5218 | 1.5172 | 1.5129 | 1.5084 | – | – | – | – | –
[2], x1 = 0.6 | 1.5343 | 1.5296 | 1.5252 | 1.5202 | 1.5159 | – | – | – | – | –
[2], x1 = 0.7 | 1.5399 | 1.5355 | 1.5307 | 1.5259 | 1.5211 | – | – | – | – | –
[2], x1 = 0.8 | 1.5447 | 1.5397 | 1.5344 | 1.5296 | 1.5247 | – | – | – | – | –
[2], x1 = 0.9 | 1.5491 | 1.5429 | 1.5375 | 1.5319 | 1.527 | – | – | – | – | –
[2], x1 = 1 | 1.5516 | 1.5445 | 1.5393 | 1.5328 | 1.5279 | – | – | – | – | –
